Data taken from ChEMBL document CHEMBL1201862, “PubChem BioAssay data set” (2004).
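Results reflect a 48-hour exposure of cells in 96-well plates to compound at five concentrations. At the GI50, growth is halved.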 Activity calls are given as the source filed them. No stated cut-off is given here; in the data, active = GI50 up to about 1.1 µM and inactive = higher.

Tests used:
Assay in all cases: growth of human tumour cells (NCI), 48 h
LXFL 529 = system: LXFL 529
DLD-1 = system: DLD-1
M19-MEL = system: M19-MEL
SNB-78 = system: SNB-78
HOP-18 = system: HOP-18
DMS-114 = system: DMS-114
KM-20L2 = system: KM-20L2
XF498 = system: XF498
RXF 631 = system: RXF 631

Row | Structure (SMILES) | GI50 (LXFL 529) | GI50 (DLD-1) | GI50 (M19-MEL) | GI50 (SNB-78) | GI50 (HOP-18) | GI50 (DMS-114) | GI50 (KM-20L2) | GI50 (XF498) | GI50 (RXF 631)
1 | NC1=NC(Cn2nc(-c3ccccc3)c3ccccc3c2=O)=NNC(=O)N1 | > 100 µM (inactive) | > 100 µM (inactive) | > 100 µM (inactive) | > 100 µM (inactive) | > 100 µM (inactive) | – | – | – | –
2 | c1csc(C[N+]23CN4CN(CN(C4)C2)C3)c1 | 20.3 µM (inactive) | 33.7 µM (inactive) | 25.9 µM (inactive) | – | – | 20.6 µM (inactive) | 26.5 µM (inactive) | – | –
3 | S=c1[nH]c2ccc(Br)cc2c(=S)n1-c1ccccc1 | – | 28.7 µM (inactive) | 17.6 µM (inactive) | 49.3 µM (inactive) | 16.5 µM (inactive) | 16.9 µM (inactive) | 35.2 µM (inactive) | 19.1 µM (inactive) | 26 µM (inactive)
4 | COCC12CC(CC1=O)C1C2ON2c3ccccc3C(=O)C12c1ccccc1 (centres undefined) | > 100 µM (inactive) | > 100 µM (inactive) | – | 68.7 µM (inactive) | > 100 µM (inactive) | > 100 µM (inactive) | > 100 µM (inactive) | > 100 µM (inactive) | –
5 | N/C(=N\N=C\c1c[nH]c2ccccc12)Nc1ccccc1 | 0.504 µM (active) | 0.474 µM (active) | – | 1.08 µM (active) | 17.9 µM (inactive) | 0.357 µM (active) | 0.327 µM (active) | – | –
6 | Cc1c(Cl)cccc1NC(=O)C(=O)C1C(=O)NC(=O)NC1=O | > 100 µM (inactive) | > 100 µM (inactive) | > 100 µM (inactive) | > 100 µM (inactive) | > 100 µM (inactive) | – | > 100 µM (inactive) | > 100 µM (inactive) | –
7 | CCOc1ccc(NC(=O)C(=O)NO)cc1 | > 100 µM (inactive) | > 100 µM (inactive) | > 100 µM (inactive) | > 100 µM (inactive) | > 100 µM (inactive) | > 100 µM (inactive) | > 100 µM (inactive) | – | –
8 | COCCNC(=O)C1C(=O)N(CCOC)C(=O)/C1=N/N (centres undefined) | > 100 µM (inactive) | > 100 µM (inactive) | > 100 µM (inactive) | > 100 µM (inactive) | – | – | > 100 µM (inactive) | > 100 µM (inactive) | –
9 | CSc1ccc(NC(=O)C2c3[nH]c4ccccc4c3C3CCC(C(C)(C)C)CC3C2C(=O)O)cc1 (centres undefined) | 15.9 µM (inactive) | 12.6 µM (inactive) | 21.1 µM (inactive) | 17.2 µM (inactive) | 16.9 µM (inactive) | 19.8 µM (inactive) | 16.3 µM (inactive) | 17.9 µM (inactive) | –
10 | NC(=O)n1ncc(Cl)c(Cl)c1=O | > 100 µM (inactive) | > 100 µM (inactive) | > 100 µM (inactive) | > 100 µM (inactive) | > 100 µM (inactive) | > 100 µM (inactive) | > 100 µM (inactive) | > 100 µM (inactive) | > 100 µM (inactive)
11 | CC(C)=CCC/C(=C/CC/C(C)=C/CCc1ccoc1)C(=O)O | > 100 µM (inactive) | 84.5 µM (inactive) | > 100 µM (inactive) | > 100 µM (inactive) | – | > 100 µM (inactive) | > 100 µM (inactive) | > 100 µM (inactive) | –
12 | BrC12c3ccccc3Sc3ccccc3C1(Br)c1ccccc12 (centres undefined) | 20.9 µM (inactive) | 33 µM (inactive) | 35.2 µM (inactive) | – | 51.5 µM (inactive) | 19.5 µM (inactive) | 20.6 µM (inactive) | – | 25.9 µM (inactive)
13 | COc1ccc(/C=C2\CCC(C)(CN(C)C)C2=O)cc1Br (centres undefined) | 17.9 µM (inactive) | 17.3 µM (inactive) | 17.3 µM (inactive) | 38.1 µM (inactive) | 28.8 µM (inactive) | 24.4 µM (inactive) | 1.26 µM (inactive) | 18.8 µM (inactive) | –
14 | CN1CCC(CN2c3ccccc3Sc3ccccc32)CC1 | 14.4 µM (inactive) | 14.7 µM (inactive) | 13.4 µM (inactive) | 15.8 µM (inactive) | 14.3 µM (inactive) | 15.9 µM (inactive) | 12.9 µM (inactive) | 11.5 µM (inactive) | –
15 | Cc1nc(Nc2ccc([N+](=O)[O-])cc2)sc1C(=O)/C=C/c1ccc(N(C)C)cc1 | – | 60.5 µM (inactive) | > 100 µM (inactive) | – | > 100 µM (inactive) | 59.4 µM (inactive) | 73.1 µM (inactive) | – | > 100 µM (inactive)
16 | CCSc1c2ccccc2c(-c2nc(F)nc(F)n2)n1CCc1ccccc1 | > 100 µM (inactive) | – | > 100 µM (inactive) | > 100 µM (inactive) | – | > 100 µM (inactive) | > 100 µM (inactive) | > 100 µM (inactive) | > 100 µM (inactive)
17 | CC(C)c1ccc2c(c1)CCC1C(C)(C)[C@@H](O)CC[C@]21C (some centres undefined) | 47.3 µM (inactive) | 36.6 µM (inactive) | 19.4 µM (inactive) | 47.4 µM (inactive) | – | 34.8 µM (inactive) | 21.4 µM (inactive) | – | –
18 | O=c1[nH]c(=O)n(C2OC(COP(=O)(O)OP(=O)(O)O)C(O)C2O)cc1F (centres undefined) | 0.555 µM (active) | 0.226 µM (active) | 1.82 µM (inactive) | 5.79 µM (inactive) | > 28 µM (inactive) | 28.5 µM (inactive) | 0.923 µM (active) | 1.69 µM (inactive) | –
19 | COC1C2C[C@@H](O)CCC2C(C(=O)OCCl)C[C@H]1O (some centres undefined) | > 100 µM (inactive) | > 100 µM (inactive) | > 100 µM (inactive) | > 100 µM (inactive) | > 100 µM (inactive) | > 100 µM (inactive) | > 100 µM (inactive) | – | > 100 µM (inactive)
20 | CCOC(=O)N1CCC(=O)C[C@@H]1C/C=C/P1(=O)O[C@H](c2ccccc2)C(C)N1C(C)C (some centres undefined) | > 100 µM (inactive) | – | > 100 µM (inactive) | > 100 µM (inactive) | – | > 100 µM (inactive) | > 100 µM (inactive) | – | –
21 | CC(C)C1COC(c2cccc(C3=N[C@@H](C(C)C)CO3)n2)=N1 (some centres undefined) | > 100 µM (inactive) | > 100 µM (inactive) | > 100 µM (inactive) | > 100 µM (inactive) | – | > 100 µM (inactive) | > 100 µM (inactive) | > 100 µM (inactive) | > 100 µM (inactive)
22 | CC(=O)OC1CCCn2c1nc1c2C(=O)C(C)=C(N2CC2)C1=O (centres undefined) | 0.614 µM (active) | 0.583 µM (active) | 0.392 µM (active) | 0.454 µM (active) | 0.348 µM (active) | 0.771 µM (active) | 0.45 µM (active) | 0.234 µM (active) | –
